Reference: patent US20070117852A1, “(Hetero)cyclyl carboxanilides for controlling harmful fungi” (priority 2003, published 2007)

System: brown rust of wheat (Puccinia recondita)
Assay: Protective treatment against brown rust of wheat (plants sprayed the day before inoculation)
Type: in vivo, Puccinia recondita on wheat seedlings cultivar "Kanzler"
Conditions: 63 ppm active compound, assessed visually after a further 7 days in greenhouse, untreated 90
Description: The active compounds were prepared as a stock solution comprising 0.25% by weight of active compound in acetone or dimethyl sulfoxide (DMSO). 1% by weight of the emulsifier Uniperol® EL (wetting agent having emulsifying and dispersant action based 10 on ethoxylated alkylphenols) was added to this solution, and the mixture was diluted with water to the desired concentration.
Leaves of potted wheat seedlings of the cultivar “Kanzler” were sprayed to runoff point with an aqueous suspension having the concentration of active compound stated below. The next day, the treated plants were dusted with spores of brown rust of wheat (Puccinia recondita). The plants were then placed in a chamber with high atmospheric humidity (90 to 95%), at 20-22° C., for 24 hours. During this time, the spores germinated and the germinal tubes penetrated into the leaf tissue. The next day, the test plants were returned into the greenhouse and cultivated at temperatures between 20 and 22° C. and at 65 to 70% relative atmospheric humidity for a further 7 days. The extent of the rust development on the leaves was then determined visually.

CC(=NOCc1ccccc1)C(C)Oc1ccccc1NC(=O)c1cccnc1Cl (stereo not shown) [IA-1, 2-Chloro-N-(2-(2-benzyloxyimino-1-methyl-n-propoxy)phenyl)nicotinamide]
Infection at 63 ppm (% of leaf area): 10 % of leaf area
